From patent US4127720A, “Pyrimido[2,1-a]isoquinoline derivatives having antiallergy activity” (priority 1977, dated 1978)
Where two headings read alike, the source gives them in different places.

Experiments:
[1] = system: reagin-mediated rat Passive Cutaneous Anaphylaxis (PCA); experiment: Reagin-mediated rat Passive Cutaneous Anaphylaxis (PCA) screening test; type: in vivo, Sprague-Dawley rats
Description: The reagin-mediated rat Passive Cutaneous Anaphylaxis (PCA) screening test used to evaluate the present compounds is generally regarded as one of the best animal models for use in predicting the antiallergy activity of test compounds in man. Briefly, the method consists of passive sensitization of skin sites on the test animals with reaginic antibodies followed after 24 hours by administration of the test drug and antigen challenge. The allergic response is measured by use of Evans' blue dye and is evaluated by the spot diameter at the injection side. Details of the test are provided below.
A substituted ovalbumin antigen is used both as immunogen and challenging antigen. The antigen is prepared as follows: 500 mg. ovalbumin (EA) and 500 mg. K2 CO3 are dissolved in 25 ml. distilled H2 O and stirred at room temperature for 5 minutes. Five hundred (500) mg. dinitrobenzene sulfonic acid, Na^+ salt, (previously recrystallized from hot absolute ethanol) is then added slowly with continued stirring. The reaction mixture is then immediately placed in the dark and allowed to proceed for 2 hours with constant stirring. After 2 hours the mixture is placed in suitable dialysis tubing and dialyzed against 5 changes (4 liters each) of distilled H2 O at 5° C. After dialysis the product is lyophilized and stored at room temperature in a brown or amber container. The antigen obtained will appear as a light yellow, amorphous solid which is very soluble in water or saline. It is designated as DNP denatured ovalbumin (DNP-d EA).
Adult, male Sprague-Dawley rats are used as a source or reagin-rich antisera for the PCA model. Immunization is by a combination of DNP-d EA on Al(OH)3 gel and B. pertussis vaccine. Preparation of the DNP-d EA - gel immunogen is as follows: Dissolve the DNP-d EA in TBS so as to give a concentration of 10 mg./ml. Slowly add 1 ml. of this solution to 10 ml. Al(OH)3 gel (10 mg. solids/ml.) with constant stirring at room temperature. Stir the mixture an additional 30 minutes to insure a uniform adsorption of antigen on gel.
The resulting preparation is then used in combination with phase I B. pertussis vaccine to immunize male S/D rats as follows: For each rat administer 0.1 ml. DNP-d EA - gel suspension intramuscularly in each hind leg (200 μg DNP-d EA and 2 mg. gel total dose). Follow these injections by the intraperitoneal administration of 1.0 ml. B. pertussis vaccine (10-20 × 10^9 organisms). The use of light ether anesthesia during this procedure is recommended to insure proper intramuscular and intraperitoneal injections. Nine days following immunization (but no longer than 10) the animals are exsanguinated by cardiac puncture or abdominal aorta cannulation under ether or pentobarbital anesthesia. The collected whole blood is allowed to clot, the serum separated by centrifugation and the individual serum samples stored frozen until assayed for IgE content.
Individual serum samples should be screened for reaginic antibody concentration before being pooled with other sera, as not all rats respond to immunization procedures with reagin production. A 1:50 saline dilution of serum from each immunized rat is used for this purpose. Intradermal injections of 0.05 ml. of the diluted sera are made in the shaven backs of two small female recipient rats, 100-120 gms. Several serum samples can be tested simultaneously in recipient animals. After a 24 to 48 hour latent period antigen challenge is accomplished by intravenous administration to each rat of 1 mg. DNP-d EA in 0.5 ml. 0.5% Evans' blue dye in saline. Sera which show positive PCA reactions at the 1:50 dilution, as measured 20 to 30 minutes post-challenge are pooled, dispensed in small aliquots and stored at -70° C. or lower until used. Negative sera may be discarded.
The IgE titer of the antisera pool should then be determined. […]

[2] = cited from earlier work
[3] = system: release of mediators, e.g. histamine and SRS-A; conditions: administered to asthmatic patients prior to inhalation of specific antigens; cited from earlier work
[4] = iv, 1-5 minutes prior to antigen challenge (DSCG: at the time of antigen challenge), read-out: Rat PCA Test ID50, i.v. (dose of compound that inhibits 50% of the response)
[5] = po, 10 minutes prior to antigen challenge, Table II and its footnote, read-out: Rat PCA Test ID50, p.o. (dose of compound that inhibits 50% of the response)
[6] = po, 10 minutes prior to antigen challenge, Table 1, read-out: Rat PCA Test ID50, p.o. (dose of compound that inhibits 50% of the response)

Structure (SMILES): O=C(O)c1cc(=O)c2c(OCC(O)COc3cccc4oc(C(=O)O)cc(=O)c34)cccc2o1 [DSCG, disodium cromoglycate, reference compound]
- ED50 [1, 4]: 0.6 mg/kg
- ED50 [1, 5]: > 30 mg/kg
- ED50 ([1]; po, DSCG dosed 30 minutes prior to challenge, Table 1, read-out: Rat PCA Test ID50, p.o. (DSCG)): > 30 mg/kg
- oral absorption [2]: not orally absorbed
- inhibition of release of mediators, e.g. histamine and SRS-A [3]: inhibits the release of mediators

Structure (SMILES): CC(C)C(=O)Oc1ccc2c(c1)-c1ncc(C(=O)O)c(=O)n1CC2 [Example 21, 10-Isobutyryloxy-6,7-dihydro-4-oxo-4H-pyrimido[2,1-a]isoquinoline-3-carboxylic Acid]
- ED50 [1, 6]: ~0.5 mg/kg

Structure (SMILES): COc1cc2c(cc1OC)-c1ncc(-c3nnn[nH]3)c(=O)n1CC2 [Example 24, 6,7-Dihydro-9,10-dimethoxy-3-(1H-tetrazol-5-yl)-4H-pyrimido[2,1-a]isoquinol-4-one]
- ED50 [1, 6]: ~0.03 mg/kg

Structure (SMILES): CCc1cn2c(=O)c(-c3nnn[nH]3)cnc2c2ccccc12 [Example 25, 7-Ethyl-3-(1H-tetrazol-5-yl)-4H-pyrimido[2,1-a]isoquinol-4-one]
- ED50 [1, 4]: 0.009 mg/kg
- ED50 [1, 5]: 0.04 mg/kg
